Measured values: US20240415819A1, “MACROCYCLIC COMPOUNDS AS PROTEASOME SUBUNIT BETA TYPE-5 INHIBITORS” (Lead Discovery Center GmbH, priority 2021, published 2024)

Columns and labels:
Karpas cells = test: Glo assay of Karpas cells (Table 3; ProteasomeGlo plating scheme); type: cell-based; settings: read-out: Pglo Karpas
Method in brief: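 Cells plated in 384 wells; compound, DMSO, staurosporine transferred by ECHO; 105 min, 37° C., 5% CO2; Proteasome-Glo (Suc-LLVY-Glo) reagent added; dark 10-15 min; luminescence; IC50 nM.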

[1] = test system: B-cells isolated from PBMC's; test: Chymotrypsin-like ProteasomeGlo assay in B-cells isolated from PBMCs; type: cell-based, human; settings: Homo sapiens; B-cells isolated from PBMC's; read-out: Pglo B-Cell
Method in brief: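 Human B-cells were negatively isolated from buffy-coat PBMCs by density gradient, RBC lysis and Miltenyi magnetic separation. Cells were plated and compounds added by acoustic transfer after 1:100 dilution, with DMSO controls and medium-only wells. Chymotrypsin-like proteasome activity was read by luminescent ProteasomeGlo to derive IC50.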

`CCC(C(=O)N[C@H]1CC(=O)N2CCCC(CCOc3ccc(C)c(c3)CNC(=O)[C@H](CCc3ccccc3)NC1=O)C2)c1ccc(OC)c(OC)c1` (stereo partly drawn) [Compound 64, 2-(3,4-dimethoxyphenyl)-N-((9S,12S)-5^4-methyl-8,11,14-trioxo-9-phenethyl-4-oxa-7,10-diaza-1(3,1)-piperidina-5(1,3)-benzenacyclotetradecaphane-12-yl)butanamide] gave an IC50 (Karpas cells) of under 100 nM and an IC50 [1] of under 100 nM.
